Laboratory results taken from ChEMBL document CHEMBL1201862, “PubChem BioAssay data set” (2004).
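Cultured in 96-well plates, cells were exposed to test compound for 48 hours across five concentrations. At the GI50, growth is halved.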 Active and inactive are the calls of the source. No stated cut-off is given here; in the data, active = GI50 up to about 1.1 µM and inactive = higher.

Key:
Assay in all cases: NCI-60 cell line screen, 48 h
[1] = system: HCT-15
[2] = system: OVCAR-4
[3] = system: 786-0
[4] = system: K562
[5] = system: MOLT-4
[6] = system: UACC-257
[7] = system: IGROV-1
[8] = system: SN12C
[9] = system: KM12
[10] = system: SK-MEL-28
[11] = system: HL-60
[12] = system: M19-MEL
[13] = system: NCI-H226
[14] = system: ACHN
[15] = system: SF-295
[16] = system: MCF7
[17] = system: MDA-N
[18] = system: Hs-578T
[19] = system: T47D
[20] = system: BT-549

| SMILES | GI50 [1] | GI50 [2] | GI50 [3] | GI50 [4] | GI50 [5] | GI50 [6] | GI50 [7] | GI50 [8] | GI50 [9] | GI50 [10] | GI50 [11] | GI50 [12] | GI50 [13] | GI50 [14] | GI50 [15] | GI50 [16] | GI50 [17] | GI50 [18] | GI50 [19] | GI50 [20] |
| --- | --- | --- | --- | --- | --- | --- | --- | --- | --- | --- | --- | --- | --- | --- | --- | --- | --- | --- | --- | --- |
| O=C(/C=C/c1c(O)ccc2ccccc12)c1ccccc1Cl | 36.4 µM | 39 µM (inactive) | 60.8 µM (inactive) | 20.2 µM (inactive) | 33.4 µM (inactive) | 19.7 µM (inactive) | 55.5 µM (inactive) | 26.7 µM (inactive) | 38.5 µM (inactive) | 23 µM (inactive) | 11.1 µM (inactive) | 14 µM (inactive) | > 100 µM (inactive) | 34.3 µM (inactive) | 23.2 µM (inactive) |  |  |  |  |  |
| CSC[S+]([O-])C[C@H](CO)NC(=O)/C=C/c1c(C)[nH]c(=O)[nH]c1=O (some centres not stated) | 1.83 µM | 0.251 µM (active) | 1.74 µM (inactive) | 1.32 µM (inactive) | 1.92 µM (inactive) | 1.38 µM (inactive) | 0.614 µM (active) | 0.776 µM (active) | 1.34 µM (inactive) | 0.767 µM (active) | 1.2 µM (inactive) | 0.718 µM (active) | 0.67 µM (active) | 1.48 µM (inactive) | 0.457 µM (active) | 1.8 µM (inactive) |  |  |  |  |
| CC1=Nn2c(nnc2-c2ccc(Cl)cc2)NC(C)(C)C1 | > 100 µM | > 100 µM (inactive) | > 100 µM (inactive) | > 100 µM (inactive) | > 100 µM (inactive) | > 100 µM (inactive) | > 100 µM (inactive) |  | > 100 µM (inactive) | > 100 µM (inactive) | > 100 µM (inactive) | > 100 µM (inactive) | > 100 µM (inactive) | > 100 µM (inactive) | > 100 µM (inactive) |  |  |  |  |  |
| CCN(CC)C(=S)SC1CCOP(=O)(N(CCCl)CCCl)N1C (configuration not stated) | 28.2 µM | 29.9 µM (inactive) | 41.2 µM (inactive) | 0.399 µM (active) | 0.439 µM (active) | > 40.9 µM (inactive) | 4.34 µM (inactive) | 28.9 µM (inactive) | 7.19 µM (inactive) | 26.9 µM (inactive) | 0.509 µM (active) | 0.212 µM (active) | 48.3 µM (inactive) | 38.9 µM (inactive) | 55.6 µM (inactive) | 69.3 µM (inactive) | > 100 µM (inactive) | > 100 µM (inactive) | 61.7 µM (inactive) | > 100 µM (inactive) |
| Nc1ccc2c(SCc3ccc([N+](=O)[O-])cc3)c3ccccc3nc2c1 | 13.5 µM | 14.1 µM (inactive) | 7.52 µM (inactive) | 3.54 µM (inactive) | 2.3 µM (inactive) | 16.4 µM (inactive) | 19.5 µM (inactive) | 18.6 µM (inactive) | 12.5 µM (inactive) | 15.6 µM (inactive) | 1.31 µM (inactive) | 13.2 µM (inactive) | 18.7 µM (inactive) | 5 µM (inactive) | 18.2 µM (inactive) | 13.6 µM (inactive) | 12.8 µM (inactive) | 17.6 µM (inactive) | 8.02 µM (inactive) | 17.9 µM (inactive) |
| O=C1CCCCCCC2=C1C(Sc1ccccc1)CC2 (configuration not stated) | 31.7 µM | 63.2 µM (inactive) | 17.7 µM (inactive) | 27.2 µM (inactive) | 18.1 µM (inactive) | 43.2 µM (inactive) |  | 19.9 µM (inactive) | 23.2 µM (inactive) | 32.4 µM (inactive) | 12.8 µM (inactive) | 50.2 µM (inactive) | 29.5 µM (inactive) | 36.1 µM (inactive) | 45 µM (inactive) |  |  |  |  |  |
| Cc1cc(C)c(-c2noc(-c3ccc(Cl)cc3)c2C2=NCCCN2)c(C)c1 | 18.5 µM | 97.1 µM (inactive) | 7.45 µM (inactive) | 14.8 µM (inactive) | 16.8 µM (inactive) | 15.1 µM (inactive) | 32.1 µM (inactive) | 19.1 µM (inactive) | 23 µM (inactive) | 14.8 µM (inactive) | 13.2 µM (inactive) | 36.1 µM (inactive) | 29.9 µM (inactive) | 17.6 µM (inactive) | 11.2 µM (inactive) |  |  |  |  |  |
| CC(=O)Nc1ccccc1S(=O)(=O)c1ccccc1 | > 100 µM | > 100 µM (inactive) | > 100 µM (inactive) | > 100 µM (inactive) | > 100 µM (inactive) | > 100 µM (inactive) | > 100 µM (inactive) | > 100 µM (inactive) | > 100 µM (inactive) | > 100 µM (inactive) | > 100 µM (inactive) | > 100 µM (inactive) | > 100 µM (inactive) | > 100 µM (inactive) | > 100 µM (inactive) |  |  |  |  |  |
| O=C(/C=C/c1ccccc1)Oc1cccc2cccnc12 | 6.17 µM | 6.87 µM (inactive) | > 44.4 µM (inactive) | 3.85 µM (inactive) | 3.2 µM (inactive) | 2.88 µM (inactive) | 11.2 µM (inactive) | 3.97 µM (inactive) | 8.39 µM (inactive) | 16.4 µM (inactive) | 3.01 µM (inactive) | 13.2 µM (inactive) | 26.7 µM (inactive) | 20.3 µM (inactive) | 8.28 µM (inactive) |  |  |  |  |  |
| [O-][S+]1c2ccccc2N=C(c2ccc3ccccc3c2)CC1C1=CC=CCC1 (configuration not stated) | 16.7 µM | > 10 µM (inactive) | 16 µM (inactive) | 10.3 µM (inactive) | 13.7 µM (inactive) | 18.3 µM (inactive) | 13.2 µM (inactive) | 17.4 µM (inactive) | 14.9 µM (inactive) | 18.2 µM (inactive) | 17.6 µM (inactive) | 17.1 µM (inactive) | 19.4 µM (inactive) | 19 µM (inactive) | 17.7 µM (inactive) |  |  |  |  |  |
| COC1/C=C\C=C(/C)C(=O)Nc2cc3nc4ccc(Br)cc4oc-3c(c2=O)CC(C)CC(OC)C(O)C(C)/C=C(\C)C1OC(N)=O (configuration not stated) | 0.142 µM | 0.469 µM (active) | 0.0227 µM (active) | 0.01 µM (active) | < 0.0103 µM (active) | 0.0556 µM (active) | 0.436 µM (active) | 0.0481 µM (active) | 2.26 µM (inactive) | 0.0137 µM (active) | 0.0128 µM (active) | 0.0383 µM (active) | 1.75 µM (inactive) | 0.21 µM (active) | 12.6 µM (inactive) | 0.000752 µM (active) | 0.00451 µM (active) | 0.0628 µM (active) | 0.00277 µM (active) | 0.00429 µM (active) |
| CCOC(=O)NC(=O)c1cn(C(CC)COC(=O)NCCCCCCNC(=O)OCC(CC)n2cc(C(=O)NC(=O)OCC)c(=O)[nH]c2=O)c(=O)[nH]c1=O (configuration not stated) | > 100 µM | > 100 µM (inactive) | > 100 µM (inactive) | > 100 µM (inactive) | > 100 µM (inactive) | > 100 µM (inactive) | > 100 µM (inactive) | > 100 µM (inactive) | > 100 µM (inactive) | > 100 µM (inactive) | > 100 µM (inactive) | > 100 µM (inactive) | > 100 µM (inactive) | > 100 µM (inactive) | > 100 µM (inactive) |  |  |  |  |  |
| CCN(CC)CCNc1ccc2ncn3c4cc(O)ccc4c(=O)c1c23 | 3.65 µM | 2.45 µM (inactive) | 2.48 µM (inactive) | 2.11 µM (inactive) | 0.668 µM (active) | 5.37 µM (inactive) | 4.25 µM (inactive) | 3.11 µM (inactive) | 4.61 µM (inactive) | 4.73 µM (inactive) | 2.84 µM (inactive) | 3.94 µM (inactive) | 2.82 µM (inactive) | 1.61 µM (inactive) | 2.5 µM (inactive) |  |  |  |  |  |
| O=C(O)COc1ccc(C(=O)/C(SS/C(C(=O)c2ccc(OCC(=O)O)c(Cl)c2Cl)=C2\C=C(c3ccc(F)cc3)SS2)=C2/C=C(c3ccc(F)cc3)SS2)c(Cl)c1Cl | 9.71 µM | 13.4 µM (inactive) | 27.9 µM (inactive) | 4.22 µM (inactive) | 8.67 µM (inactive) | 27.5 µM (inactive) | 10.8 µM (inactive) | 14.7 µM (inactive) | 15.1 µM (inactive) | 19.2 µM (inactive) | 2.37 µM (inactive) | 13.2 µM (inactive) | 15.1 µM (inactive) | 18.6 µM (inactive) | 20.8 µM (inactive) | 36.8 µM (inactive) |  | 3.83 µM (inactive) | 3.13 µM (inactive) | 27.7 µM (inactive) |
| C=C1C(=O)C23C(CC(OC(C)=O)C1[C@@H]2OC(C)=O)C1(C)C(OC(C)=O)CCC(C)(C)C1C[C@@H]3OC(C)=O (some centres not stated) | 1.23 µM | 1.91 µM (inactive) | 1.43 µM (inactive) | 0.755 µM (active) | 0.365 µM (active) | 1.74 µM (inactive) | 1.45 µM (inactive) | 1.46 µM (inactive) | 1.91 µM (inactive) | 1.87 µM (inactive) | 0.0771 µM (active) | 1.75 µM (inactive) | 1.69 µM (inactive) | 1.56 µM (inactive) | 1.46 µM (inactive) |  |  |  |  |  |
| C=C(C)C(=O)/N=C(\N)NC#N | 44.6 µM | 19.9 µM (inactive) | 37.8 µM (inactive) | 21.8 µM (inactive) |  | 29.9 µM (inactive) | > 46.9 µM (inactive) | 36.4 µM (inactive) | 59 µM (inactive) | 28.9 µM (inactive) | 20 µM (inactive) | 23.6 µM (inactive) | 145 µM (inactive) | 138 µM (inactive) | > 90.2 µM (inactive) | 47.5 µM (inactive) | 39.4 µM (inactive) | 161 µM (inactive) | 14.3 µM (inactive) | 14.8 µM (inactive) |
| C/C=C(\N=C=S)C(=O)OC1C(COC(C)=O)OC([C@]2(O)CC(=O)C(N)=C(C(=O)O)C2=O)C(O)C1OC1CC(OC)C(O)([C@@H](C)OC(=O)[C@@H](C)CC)C(C)O1 (some centres not stated) | 16 µM | 4.26 µM (inactive) | 12.3 µM (inactive) | 2.11 µM (inactive) | 2.44 µM (inactive) | 15.4 µM (inactive) | 17.7 µM (inactive) | 15 µM (inactive) | 7.94 µM (inactive) | 7.66 µM (inactive) | 2.12 µM (inactive) | 2.6 µM (inactive) | 19.4 µM (inactive) | 18.3 µM (inactive) | 18.1 µM (inactive) | 14.5 µM (inactive) | 13.2 µM (inactive) | 7.82 µM (inactive) | 11.2 µM (inactive) | 7.43 µM (inactive) |
